# Patent publication US9833497B2, “Human originated EGF domain proteins and use of the same” (CHENGDU SOURCEBIO LIMITED-LIABILITY COMPANY, priority 2013, dated 2017)
# Tests used:
# Type in all cases: cell-based
# [1] = test system: Pseudomonas aeruginosa; assay: MIC against Gram-negative bacteria: Pseudomonas aeruginosa; details: for MIC / MIC (μg/mL) P. aeruginosa: P. aeruginosa
# Outline: (§1)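 The recombinant human-originated EGF domain proteins were serially diluted two-fold against bacteria at 5×10^5 CFU/mL in LB medium. After shaken incubation at 37° C, the lowest concentration with no bacterial growth was recorded as the MIC.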
# [2] = test system: Citrobacter diversus; assay: MIC against Gram-negative bacteria: Citrobacter diversus; details: for MIC / MIC (μg/mL) C. diversus: C. diversus
# Outline: as §1
# [3] = test system: Serratia marcescens; assay: MIC against Gram-negative bacteria: Serratia marcescens; details: for MIC / MIC (μg/mL) S. marcescens: S. marcescens
# Outline: as §1
# [4] = test system: Enterobacter cloacae; assay: MIC against Gram-negative bacteria: Enterobacter cloacae; details: for MIC / MIC (μg/mL) E. cloacae: E. cloacae
# Outline: as §1
# [5] = test system: Klebsiella pneumonia; assay: MIC against Gram-negative bacteria: Klebsiella pneumonia; details: for MIC / MIC (μg/mL) K. pneumonia: K. pneumonia
# Outline: as §1
# [6] = test system: Proteus vulgaris; assay: MIC against Gram-negative bacteria: Proteus vulgaris; details: for MIC / MIC (μg/mL) P. vulgaris: P. vulgaris
# Outline: as §1
# [7] = test system: Proteus mirabilis; assay: MIC against Gram-negative bacteria: Proteus mirabilis; details: for MIC / MIC (μg/mL) P. mirabilis: P. mirabilis
# Outline: as §1
# [8] = test system: Aeromonas hydrophila; assay: MIC against Gram-negative bacteria: Aeromonas hydrophila; details: for MIC / MIC (μg/mL) A. hydrophila: A. hydrophila
# Outline: as §1
# [9] = test system: E. coli BL21; assay: MIC against Gram-negative bacteria: E. coli BL21; details: for MIC / MIC (μg/mL) E. coli BL21: E. coli BL21
# Outline: as §1
# [10] = test system: E. coli DH5α; assay: Antibacterial activity: MIC and growth curve against E. coli DH5α in 96-well plate; details: minimal inhibitory concentration against E. coli DH5α; 96-well plate, 5×10^5 CFU/mL, 37° C., judged after 8 h
# Outline: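 Log-phase bacteria (OD600 ~0.5) resuspended in LB at 5×10^5 CFU/mL, exposed to recombinant protein at 50, 25, 12.5 μg/mL final in triplicate, 37 °C shaking at 175 rpm. OD600 read every 30 min; MIC is lowest concentration showing no growth.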
# [11] = test system: Moraxella catarrhalis; assay: MIC against Gram-negative bacteria: Moraxella catarrhalis; details: for MIC / MIC (μg/mL) M. catarrhalis: M. catarrhalis
# Outline: as §1
# [12] = 10 h cultivation at 37° C., 5×10^5 CFU/mL
# [13] = 96-well plate, 5×10^5 CFU/mL, 37° C., 10 h
# [14] = 10 h cultivation at 37° C., 5×10^5 CFU/mL, two-fold serial dilution
substance,measurement,setting,value
PRT921 (NIDDCASAACFHGATCHDRVASFYCECPHGRTGLLCH; listed as Homo sapiens),MIC,[1]; 10 h cultivation at 37° C.,25 µg/mL
same,MIC,[2]; 10 h cultivation at 37° C.,12.5 µg/mL
same,MIC,[3]; 10 h cultivation at 37° C.,12.5 µg/mL
same,MIC,[4]; 10 h cultivation at 37° C.,12.5 µg/mL
same,MIC,[5]; 10 h cultivation at 37° C.,12.5 µg/mL
same,MIC,[6]; 10 h cultivation at 37° C.,25 µg/mL
same,MIC,[7]; 10 h cultivation at 37° C.,12.5 µg/mL
same,MIC,[8]; 10 h cultivation at 37° C.,25 µg/mL
same,MIC,[9]; 10 h cultivation at 37° C.,12.5 µg/mL
same,MIC,[10],12.5 µg/mL
same,MIC,[11]; 10 h cultivation at 37° C.,25 µg/mL
PRT762 (ALDPCVLGTHQCQHVCISDGEGKHHCECSQGYTLNADKKTCS; listed as Homo sapiens),MIC (μg/mL) P. aeruginosa,[1]; [12],50 µg/mL
same,MIC (μg/mL) C. diversus,[2]; [12],50 µg/mL
same,MIC (μg/mL) S. marcescens,[3]; [12],12.5 µg/mL
same,MIC (μg/mL) E. cloacae,[4]; [12],50 µg/mL
same,MIC (μg/mL) K. pneumonia,[5]; [12],12.5 µg/mL
same,MIC (μg/mL) P. vulgaris,[6]; [12],25 µg/mL
same,MIC (μg/mL) P. mirabilis,[7]; [12],50 µg/mL
same,MIC (μg/mL) A. hydrophila,[8]; [12],12.5 µg/mL
same,MIC (μg/mL) E. coli BL21,[9]; [12],12.5 µg/mL
same,MIC,[10],50 µg/mL
same,MIC (μg/mL) M. catarrhalis,[11]; [12],12.5 µg/mL
PRT492 (CICYGHASSCPWDETTKKLQCQCEHNTCGESCNRCCPGYHQQPWRPGTVSSGNTCEA; listed as Homo sapiens),MIC against P. aeruginosa,[1]; [13],25 µg/mL
same,MIC against C. diversus,[2]; [13],25 µg/mL
same,MIC against S. marcescens,[3]; [13],50 µg/mL
same,MIC against E. cloacae,[4]; [13],25 µg/mL
same,MIC against K. pneumonia,[5]; [13],12.5 µg/mL
same,MIC against P. vulgaris,[6]; [13],12.5 µg/mL
same,MIC against P. mirabilis,[7]; [13],50 µg/mL
same,MIC against A. hydrophila,[8]; [13],50 µg/mL
same,MIC against E. coli BL21,[9]; [13],50 µg/mL
same,MIC,[10],25 µg/mL
same,MIC against M. catarrhalis,[11]; [13],12.5 µg/mL
PRT1099 (PSTVCGNEKTNLTCYNGGNCTEFQTELKCMCRPGFTGEWCE; listed as Homo sapiens),MIC P. aeruginosa,[1]; [14],12.5 µg/mL
same,MIC C. diversus,[2]; [14],25 µg/mL
same,MIC S. marcescens,[3]; [14],12.5 µg/mL
same,MIC E. cloacae,[4]; [14],12.5 µg/mL
same,MIC K. pneumonia,[5]; [14],50 µg/mL
same,MIC P. vulgaris,[6]; [14],50 µg/mL
same,MIC P. mirabilis,[7]; [14],25 µg/mL
same,MIC A. hydrophila,[8]; [14],50 µg/mL
same,MIC E. coli BL21,[9]; [14],50 µg/mL
same,MIC,[10],12.5 µg/mL
same,MIC M. catarrhalis,[11]; [14],12.5 µg/mL
PRT920 (DVDECQLMPNACQNGGTCHNTHGGYNCVCVNGWTGEDCS; listed as Homo sapiens),MIC,[1]; 10 h cultivation at 37° C.,25 µg/mL
same,MIC,[2]; 10 h cultivation at 37° C.,50 µg/mL
same,MIC,[3]; 10 h cultivation at 37° C.,50 µg/mL
same,MIC,[4]; 10 h cultivation at 37° C.,12.5 µg/mL
same,MIC,[5]; 10 h cultivation at 37° C.,50 µg/mL
same,MIC,[6]; 10 h cultivation at 37° C.,12.5 µg/mL
same,MIC,[7]; 10 h cultivation at 37° C.,50 µg/mL
same,MIC,[8]; 10 h cultivation at 37° C.,25 µg/mL
same,MIC,[9]; 10 h cultivation at 37° C.,25 µg/mL
same,MIC,[10],12.5 µg/mL
same,MIC,[11]; 10 h cultivation at 37° C.,12.5 µg/mL
PRT790 (HGPQCEQRCPCQNGGVCHHVTGECSCPSGWMGTVCG; listed as Homo sapiens),MIC (μg/mL) P. aeruginosa,[1]; [12],25 µg/mL
same,MIC (μg/mL) C. diversus,[2]; [12],50 µg/mL
same,MIC (μg/mL) S. marcescens,[3]; [12],12.5 µg/mL
same,MIC (μg/mL) E. cloacae,[4]; [12],12.5 µg/mL
same,MIC (μg/mL) K. pneumonia,[5]; [12],25 µg/mL
same,MIC (μg/mL) P. vulgaris,[6]; [12],50 µg/mL
same,MIC (μg/mL) P. mirabilis,[7]; [12],12.5 µg/mL
same,MIC (μg/mL) A. hydrophila,[8]; [12],25 µg/mL
same,MIC (μg/mL) E. coli BL21,[9]; [12],50 µg/mL
same,MIC,[10],25 µg/mL
same,MIC (μg/mL) M. catarrhalis,[11]; [12],25 µg/mL
PRT642 (DVNECDELNNRMSLCKNAKCINTDGSYKCLCLPGYVPSDKPNYCT; listed as Homo sapiens),MIC P. aeruginosa,[1]; [13],25 µg/mL
same,MIC C. diversus,[2]; [13],25 µg/mL
same,MIC S. marcescens,[3]; [13],25 µg/mL
same,MIC E. cloacae,[4]; [13],25 µg/mL
same,MIC K. pneumonia,[5]; [13],12.5 µg/mL
same,MIC P. vulgaris,[6]; [13],50 µg/mL
same,MIC P. mirabilis,[7]; [13],25 µg/mL
same,MIC A. hydrophila,[8]; [13],50 µg/mL
same,MIC E. coli BL21,[9]; [13],50 µg/mL
same,MIC,[10],12.5 µg/mL
same,MIC M. catarrhalis,[11]; [13],12.5 µg/mL
PRT155 (APGPCAAQPCRNGGVCTSRPEPDPQHPAPAGEPGYSCTCPAGISGANCQ; listed as Homo sapiens),MIC (μg/mL) P. aeruginosa,[1]; [12],12.5 µg/mL
same,MIC (μg/mL) C. diversus,[2]; [12],12.5 µg/mL
same,MIC (μg/mL) S. marcescens,[3]; [12],12.5 µg/mL
same,MIC (μg/mL) E. cloacae,[4]; [12],12.5 µg/mL
same,MIC (μg/mL) K. pneumonia,[5]; [12],25 µg/mL
same,MIC (μg/mL) P. vulgaris,[6]; [12],25 µg/mL
same,MIC (μg/mL) P. mirabilis,[7]; [12],12.5 µg/mL
same,MIC (μg/mL) A. hydrophila,[8]; [12],25 µg/mL
same,MIC (μg/mL) E. coli BL21,[9]; [12],25 µg/mL
same,MIC,[10],12.5 µg/mL
same,MIC (μg/mL) M. catarrhalis,[11]; [12],25 µg/mL
PRT978 (DVDECASQPCQHGGSCIDLVARYLCSCPPGTLGVLCE; listed as Homo sapiens),MIC,[1]; 10 h cultivation at 37° C.,12.5 µg/mL
same,MIC,[2]; 10 h cultivation at 37° C.,50 µg/mL
same,MIC,[3]; 10 h cultivation at 37° C.,12.5 µg/mL
same,MIC,[4]; 10 h cultivation at 37° C.,12.5 µg/mL
same,MIC,[5]; 10 h cultivation at 37° C.,50 µg/mL
same,MIC,[6]; 10 h cultivation at 37° C.,50 µg/mL
same,MIC,[7]; 10 h cultivation at 37° C.,25 µg/mL
same,MIC,[8]; 10 h cultivation at 37° C.,25 µg/mL
same,MIC,[9]; 10 h cultivation at 37° C.,50 µg/mL
same,MIC,[10],12.5 µg/mL
same,MIC,[11]; 10 h cultivation at 37° C.,12.5 µg/mL
PRT160 (KIDYCILDPCRNGATCISSLSGFTCQCPEGYFGSACE; listed as Homo sapiens),MIC (μg/mL) P. aeruginosa,[1]; [12],12.5 µg/mL
same,MIC (μg/mL) C. diversus,[2]; [12],12.5 µg/mL
same,MIC (μg/mL) S. marcescens,[3]; [12],12.5 µg/mL
same,MIC (μg/mL) E. cloacae,[4]; [12],25 µg/mL
same,MIC (μg/mL) K. pneumonia,[5]; [12],25 µg/mL
same,MIC (μg/mL) P. vulgaris,[6]; [12],25 µg/mL
same,MIC (μg/mL) P. mirabilis,[7]; [12],12.5 µg/mL
same,MIC (μg/mL) A. hydrophila,[8]; [12],25 µg/mL
same,MIC (μg/mL) E. coli BL21,[9]; [12],25 µg/mL
same,MIC,[10],12.5 µg/mL
same,MIC (μg/mL) M. catarrhalis,[11]; [12],25 µg/mL
PRT161 (KVDPCASSPCQNNGTCYVDGVHFTCNCSPGFTGPTCA; listed as Homo sapiens),MIC (μg/mL) P. aeruginosa,[1]; [12],25 µg/mL
same,MIC (μg/mL) C. diversus,[2]; [12],25 µg/mL
same,MIC (μg/mL) S. marcescens,[3]; [12],25 µg/mL
same,MIC (μg/mL) E. cloacae,[4]; [12],25 µg/mL
same,MIC (μg/mL) K. pneumonia,[5]; [12],12.5 µg/mL
same,MIC (μg/mL) P. vulgaris,[6]; [12],50 µg/mL
same,MIC (μg/mL) P. mirabilis,[7]; [12],25 µg/mL
same,MIC (μg/mL) A. hydrophila,[8]; [12],50 µg/mL
same,MIC (μg/mL) E. coli BL21,[9]; [12],12.5 µg/mL
same,MIC,[10],12.5 µg/mL
same,MIC (μg/mL) M. catarrhalis,[11]; [12],12.5 µg/mL
PRT1071 (ELDQCWEHCRNGGTCAASPSGMPTCRCPTGFTGPKCT; listed as Homo sapiens),MIC P. aeruginosa,[1]; [14],12.5 µg/mL
same,MIC C. diversus,[2]; [14],12.5 µg/mL
same,MIC S. marcescens,[3]; [14],12.5 µg/mL
same,MIC E. cloacae,[4]; [14],50 µg/mL
same,MIC K. pneumonia,[5]; [14],25 µg/mL
same,MIC P. vulgaris,[6]; [14],50 µg/mL
same,MIC P. mirabilis,[7]; [14],12.5 µg/mL
same,MIC A. hydrophila,[8]; [14],25 µg/mL
same,MIC E. coli BL21,[9]; [14],25 µg/mL
same,MIC,[10],50 µg/mL
same,MIC M. catarrhalis,[11]; [14],50 µg/mL
